Key:
human CXCR3 = target: T1, human CXCR3 (Homo sapiens, UniProt P49682); experiment: [35S]GTPγS exchange assay, CXCR3 receptor inhibition (hI-TAC-induced GTPγS-binding); format: biochemical; details: -log IC50 (molar) inhibiting 50% of specific I-TAC-induced GTPγS-binding, membranes of human CXCR3-transfected CHO cells; for IC50: read-out: pIC50 (converted)
T1 construct: expressed in transfected cells; host or cells: CHO cells (membrane preparation)
T1 sequence (P49682 1-368): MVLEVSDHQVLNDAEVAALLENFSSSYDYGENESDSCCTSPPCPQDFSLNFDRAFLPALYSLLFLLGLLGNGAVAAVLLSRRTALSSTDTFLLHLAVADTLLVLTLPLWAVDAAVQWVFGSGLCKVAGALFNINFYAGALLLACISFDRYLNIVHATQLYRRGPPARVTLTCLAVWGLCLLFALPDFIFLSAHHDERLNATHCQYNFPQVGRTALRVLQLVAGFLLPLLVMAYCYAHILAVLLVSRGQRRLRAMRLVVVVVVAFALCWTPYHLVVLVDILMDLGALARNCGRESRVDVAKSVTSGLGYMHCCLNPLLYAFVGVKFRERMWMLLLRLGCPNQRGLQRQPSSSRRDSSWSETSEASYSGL

pIC50 (human CXCR3)	melting point [°C]	IC50 (human CXCR3) [µM]	Compound
5.6	298.1 to 303.1		CN1C(=O)CCC(c2ccccc2)(C2CCN(Cc3ccc(Br)cc3)CC2)C1=O (stereo not shown) [Compound 125]
	273.9 to 278.3	0.316	Cl.O=C1CCC(c2ccc(F)cc2F)(C2CCN(Cc3ccc(Br)cc3)CC2)C(=O)N1 (single isomer, unassigned) [Compound 195]
6.4	192.3 to 196.3		O=C1CCC(c2ccccc2)(C2CCN(Cc3ccc(Cl)c(F)c3)CC2)C(=O)N1 (single isomer, unassigned) [Compound 41]

Second part, the compound before the results:

Compound	pIC50 (human CXCR3)	melting point [°C]	IC50 (human CXCR3) [µM]
Cl.O=C1CCC(c2ccc(F)cc2F)(C2CCN(Cc3ccc(Cl)c(F)c3)CC2)C(=O)N1 (single isomer, unassigned) [Compound 203]		282 to 285.9	0.0794
O=C1CCC(c2ccccc2)(C2CCN(Cc3ccc(Cl)c(F)c3)CC2)C(=O)N1 (single isomer, unassigned) [Compound 40]		192 to 194.3	0.398

From patent US20090030039A1, “Piperidine Derivatives as Cxcr3 Receptor Antagonists” (priority 2006, published 2009)
